# In patent US20250320189A1, “NEW DERIVATIVES FOR TREATING TRPM3 MEDIATED DISORDERS” (Katholieke Universiteit Leuven, priority 2022, published 2025):
# Molecular target: T1, mouse TRPM3α2 (mTRPM3) ion channel (Mus musculus, UniProt J9SQF3)
# T1 construct: expressed in transfected cells; host or cells: flip-in (Flp-In) HEK293
# Assay: Monitoring the TRPM3 ion channel driven Ca2+ uptake (Fluo-4 AM assay)
# Assay type: cell-based
# Conditions: mTRPM3alpha2 overexpressing flip-in HEK293 cells, stimulated with Pregnenolone sulfate (PS) 50 μM
# Description: In order to monitor the inhibition of the mouse TRPM3α2 (mTRPM3) ion channel by the compounds of the invention, a cellular system making use of an mTRPM3alpha2 or hTRPM3 overexpressing cell line (flip-in HEK293) was used. The TRPM3 channel was stimulated/opened with Pregnenolone sulfate (PS) (50 μM) which results in Ca^2+ influx.
# For mTRPM3, the intracellular Ca^2+ was measured with a Calcium responsive dye, Fluor-4 AMV ester (Invitrogen). Cells were cultured until a confluence of 80-90%, washed with Versene (Invitrogen) and detached from the surface by a short incubation with 0.05% Trypsin (Invitrogen). The trypsination process was stopped by the addition of complete cell culture medium (DMEM, glutamax, 10% FCS, NEAA,Pen-Strep). Cells were collected and resuspended in Krebs buffer without Calcium at RT.
# Prior the cell seeding (±2000 cells/well into a black, 384 well plate (Greiner)) the diluted compound was added in the assay plate, together with the PS dissolved in Krebs buffer containing Calcium. […] Directly after cell addition the plates were read on an Envision fluorescence reader (PerkinElmer) by an Excitation of 485 nm and emission at 535 nm.
# Channel inhibition was calculated compared to a non-PS stimulated control versus a condition stimulated with PS (50 μM) with vehicle. The ability of the compounds of the invention to inhibit this activity was determined as: Percentage inhibition=[1−((RFU determined for sample with test compound present−RFU determined for sample with positive control inhibitor) divided by (RFU determined in the presence of vehicle−RFU determined for sample with positive control inhibitor))]*100.
# The activities of the Example compounds tested are depicted in the table below. The activity ranges A, B and C refer to IC50 values in the Fluo-4 AM assay as follows: “A”: IC50<1 μM; “B”: 1 μM≤IC50≤20 μM and “C”: IC50>20 μM
# T1 sequence (J9SQF3 1-1709 isoform J9SQF3-12): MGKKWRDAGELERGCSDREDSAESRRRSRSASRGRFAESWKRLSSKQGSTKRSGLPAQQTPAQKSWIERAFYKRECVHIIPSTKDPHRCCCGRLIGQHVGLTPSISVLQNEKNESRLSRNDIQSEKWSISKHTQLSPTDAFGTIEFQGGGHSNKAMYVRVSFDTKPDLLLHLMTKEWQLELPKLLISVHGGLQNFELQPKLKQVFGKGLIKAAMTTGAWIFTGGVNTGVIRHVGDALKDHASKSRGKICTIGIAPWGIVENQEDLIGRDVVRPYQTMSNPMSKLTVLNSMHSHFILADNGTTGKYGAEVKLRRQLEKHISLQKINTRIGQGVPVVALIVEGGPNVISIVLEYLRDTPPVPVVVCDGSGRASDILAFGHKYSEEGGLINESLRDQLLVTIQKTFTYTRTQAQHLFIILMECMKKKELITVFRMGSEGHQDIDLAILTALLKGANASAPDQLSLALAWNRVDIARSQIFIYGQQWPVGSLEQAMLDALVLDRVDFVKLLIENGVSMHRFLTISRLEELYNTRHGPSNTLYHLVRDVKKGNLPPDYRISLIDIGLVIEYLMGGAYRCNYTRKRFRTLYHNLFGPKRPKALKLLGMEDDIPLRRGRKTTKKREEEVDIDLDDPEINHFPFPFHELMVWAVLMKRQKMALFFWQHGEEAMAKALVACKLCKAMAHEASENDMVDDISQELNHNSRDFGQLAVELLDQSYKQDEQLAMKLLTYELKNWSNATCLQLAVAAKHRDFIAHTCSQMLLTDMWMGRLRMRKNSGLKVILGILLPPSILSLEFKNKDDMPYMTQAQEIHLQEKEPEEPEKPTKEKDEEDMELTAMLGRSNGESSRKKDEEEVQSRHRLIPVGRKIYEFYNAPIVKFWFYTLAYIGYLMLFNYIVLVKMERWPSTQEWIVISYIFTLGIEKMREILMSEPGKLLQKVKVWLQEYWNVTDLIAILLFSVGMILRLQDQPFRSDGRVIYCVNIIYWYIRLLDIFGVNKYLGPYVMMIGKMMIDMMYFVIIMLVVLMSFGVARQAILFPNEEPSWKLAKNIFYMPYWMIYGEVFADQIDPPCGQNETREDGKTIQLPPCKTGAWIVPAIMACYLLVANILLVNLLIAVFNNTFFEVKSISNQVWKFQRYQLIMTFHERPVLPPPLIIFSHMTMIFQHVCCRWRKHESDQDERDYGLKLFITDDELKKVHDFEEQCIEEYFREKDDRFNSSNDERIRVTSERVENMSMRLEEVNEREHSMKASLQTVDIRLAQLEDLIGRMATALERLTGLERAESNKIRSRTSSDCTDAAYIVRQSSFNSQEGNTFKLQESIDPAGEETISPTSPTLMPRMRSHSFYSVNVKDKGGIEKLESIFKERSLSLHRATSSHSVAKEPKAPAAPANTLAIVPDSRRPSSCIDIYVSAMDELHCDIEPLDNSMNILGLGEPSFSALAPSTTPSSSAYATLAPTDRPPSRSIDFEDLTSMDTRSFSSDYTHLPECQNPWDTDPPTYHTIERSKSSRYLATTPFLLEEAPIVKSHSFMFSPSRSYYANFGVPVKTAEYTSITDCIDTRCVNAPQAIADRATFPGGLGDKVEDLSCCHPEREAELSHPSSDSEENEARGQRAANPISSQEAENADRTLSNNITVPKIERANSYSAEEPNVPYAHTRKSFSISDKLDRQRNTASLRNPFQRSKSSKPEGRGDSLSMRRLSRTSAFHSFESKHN
row,IC50,SMILES
1,< 1000 nM,"COCC(C)(CO)NC(=O)c1c(C)oc2ccc(OCC3(C(F)(F)F)CC3)cc12 (single isomer, unassigned) [Cpd 060 - En2, N-(1-hydroxy-3-methoxy-2-methylpropan-2-yl)-2-methyl-5-{[1-(trifluoromethyl)cyclopropyl]methoxy}-1-benzofuran-3-carboxamide]"
2,< 1000 nM,"Cc1oc2ccc(OCC3CC3)cc2c1C(=O)NC1(C(N)=O)CCOC1 (single isomer, unassigned) [Cpd 035 - En2, N-(3-carbamoyloxolan-3-yl)-5-(cyclopropylmethoxy)-2-methyl-1-benzofuran-3-carboxamide]"
3,< 1000 nM,"Cc1oc2ccc(OCC3CCCC3)cc2c1C(=O)NC(C)(CO)C(N)=O (single isomer, unassigned) [Cpd 062 - En1, 2-{[5-(cyclopentylmethoxy)-2-methyl-1-benzofuran-3-yl]formamido}-3-hydroxy-2-methylpropanamide]"
4,1000 to 20000 nM,"Cc1oc2ccc(OC[C@@H]3C[C@@H]4C[C@@H]4C3)cc2c1C(=O)NC(C)(CO)C(N)=O (single isomer, unassigned) [Cpd 050 - En1, Cis-2-{[5-({bicyclo[3.1.0]hexan-3-yl}methoxy)-2-methyl-1-benzofuran-3-yl]formamido}-3-hydroxy-2-methylpropanamide]"
5,1000 to 20000 nM,"Cc1oc2ccc(OCC(C)C)cc2c1C(=O)NC1CCNCC1(F)F (single isomer, unassigned) [Cpd 042-En1, N-(3,3-difluoropiperidin-4-yl)-2-methyl-5-(2-methylpropoxy)-1-benzofuran-3-carboxamide]"
6,1000 to 20000 nM,"Cc1oc2ccc(OCC3(C(F)(F)F)CC3)cc2c1C(=O)NC1(C)CCCNC1=O (single isomer, unassigned) [Cpd 061 - En2, 2-methyl-N-(3-methyl-2-oxopiperidin-3-yl)-5-{[1-(trifluoromethyl)cyclopropyl]methoxy}-1-benzofuran-3-carboxamide]"
7,< 1000 nM,"Cc1oc2ccc(OCC(C)(C)C)cc2c1C(=O)N[C@@H](CO)C(N)=O [Cpd 039, (2S)-2-{[5-(2,2-dimethylpropoxy)-2-methyl-1-benzofuran-3-yl]formamido}-3-hydroxypropanamide]"
8,< 1000 nM,"Cc1oc2ccc(OCC3CC(F)(F)C3)cc2c1C(=O)NC(C)(CO)C(N)=O (single isomer, unassigned) [Cpd 054 - En2, 2-({5-[(3,3-difluorocyclobutyl)methoxy]-2-methyl-1-benzofuran-3-yl}formamido)-3-hydroxy-2-methylpropanamide]"
9,< 1000 nM,"Cc1oc2ccc(OCC3CC3)cc2c1C(=O)NC1CCNCC1(F)F (single isomer, unassigned) [Cpd 024-En2, 5-(cyclopropylmethoxy)-N-(3,3-difluoropiperidin-4-yl)-2-methyl-1-benzofuran-3-carboxamide]"
10,< 1000 nM,"Cc1oc2ccc(OCC3CC3)cc2c1C(=O)NC(CO)C(N)C(F)(F)F (single isomer, unassigned) [Cpd 056 - En2, N-[(2)-3-amino-4,4,4-trifluoro-1-hydroxybutan-2-yl]-5-(cyclopropylmethoxy)-2-methyl-1-benzofuran-3-carboxamide]"
11,1000 to 20000 nM,"Cc1oc2ccc(OCC3CC3)cc2c1C(=O)NC1CCOCC1 [Cpd 022, 5-(cyclopropylmethoxy)-2-methyl-N-(oxan-4-yl)-1-benzofuran-3-carboxamide]"
12,< 1000 nM,"Cc1oc2ccc(OCC34CC(C)(C3)C4)cc2c1C(=O)NC(C)(CO)C(N)=O (single isomer, unassigned) [Cpd 052 - En1, 3-hydroxy-2-methyl-2-{[2-methyl-5-({3-methylbicyclo[1.1.1]pentan-1-yl}methoxy)-1-benzofuran-3-yl]formamido}propenamide]"
13,1000 to 20000 nM,"Cc1oc2ccc(OC[C@H]3C[C@H](C)C3)cc2c1C(=O)NC(C)(CO)C(N)=O (single isomer, unassigned) [Cpd 059 - En2, Trans-3-hydroxy-2-methyl-2-({2-methyl-5-[(3-methylcyclobutyl)methoxy]-1-benzofuran-3-yl}formamido)propenamide]"
14,< 1000 nM,"Cc1oc2ccc(OCC3CC3)cc2c1C(=O)N[C@@H](CO)C(N)=O [Cpd 001, (2S)-2-{[5-(cyclopropylmethoxy)-2-methyl-1-benzofuran-3-yl]formamido}-3-hydroxypropanamide]"
15,1000 to 20000 nM,"Cc1oc2ccc(OCC3CC3(C)C)cc2c1C(=O)NC1CCNCC1(F)F (single isomer, unassigned) [Cpd 033-En4, N-(3,3-difluoropiperidin-4-yl)-5-[(2,2-dimethylcyclopropyl)methoxy]-2-methyl-1-benzofuran-3-carboxamide]"
16,< 1000 nM,"NC(=O)[C@H](CO)NC(=O)c1c(C(F)F)oc2ccc(OCC3CC3)cc12 [Cpd 008, (2S)-2-{[5-(cyclopropylmethoxy)-2-(difluoromethyl)-1-benzofuran-3-yl]formamido}-3-hydroxypropanamide]"
17,1000 to 20000 nM,"Cc1oc2ccc(OCC3CC3)cc2c1C(=O)NC1(CO)CC1 [Cpd 026, 5-(cyclopropylmethoxy)-N-[1-(hydroxymethyl)cyclopropyl]-2-methyl-1-benzofuran-3-carboxamide]"
18,< 1000 nM,"Cc1oc2ccc(OCC3CC3)cc2c1C(=O)NC(C)(CO)C(N)=O (single isomer, unassigned) [Cpd 017 - En2, 2-{[5-(cyclopropylmethoxy)-2-methyl-1-benzofuran-3-yl]formamido}-3-hydroxy-2-methylpropanamide]"
19,1000 to 20000 nM,"Cc1oc2ccc(OCC3CC3(F)F)cc2c1C(=O)NC(CO)CC(F)(F)F (single isomer, unassigned) [Cpd 057 - En4, 5-[(2,2-difluorocyclopropyl)methoxy]-2-methyl-N-(4,4,4-trifluoro-1-hydroxybutan-2-yl)-1-benzofuran-3-carboxamide]"
20,< 1000 nM,"Cc1oc2ccc(OCC3CC3)cc2c1C(=O)N[C@H](CO)C(N)=O [Cpd 009, (2R)-2-{[5-(cyclopropylmethoxy)-2-methyl-1-benzofuran-3-yl]formamido}-3-hydroxypropanamide]"
21,< 1000 nM,"Cc1oc2ccc(OCC(F)F)cc2c1C(=O)N[C@H](C(N)=O)[C@@H](C)O [Cpd 040, (2S,3R)-2-{[5-(2,2-difluoroethoxy)-2-methyl-1-benzofuran-3-yl]formamido}-3-hydroxybutanamide]"
22,< 1000 nM,"Cc1oc2ccc(OCC3CCCC3(F)F)cc2c1C(=O)NC(CO)C(N)=O (stereo not drawn) [Cpd 013, 2-({5-[(2,2-difluorocyclopentyl)methoxy]-2-methyl-1-benzofuran-3-yl}formamido)-3-hydroxypropanamide]"
23,1000 to 20000 nM,"Cc1oc2ccc(OCC3CC3(C)C)cc2c1C(=O)NC1CCNCC1(F)F (single isomer, unassigned) [Cpd 033-En2, N-(3,3-difluoropiperidin-4-yl)-5-[(2,2-dimethylcyclopropyl)methoxy]-2-methyl-1-benzofuran-3-carboxamide]"
24,1000 to 20000 nM,"Cc1oc2ccc(OCC3CC3)cc2c1C(=O)NC(CO)C(N)C(F)(F)F (single isomer, unassigned) [Cpd 056 - En4, N-[(2)-3-amino-4,4,4-trifluoro-1-hydroxybutan-2-yl]-5-(cyclopropylmethoxy)-2-methyl-1-benzofuran-3-carboxamide]"
